Assay results as given in patent US20080070883A1, “Use of LXR modulators for the prevention and treatment of skin aging” (Wyeth, priority 2006, published 2008).

Assays:
ABCG1 = experiment: TaqMan quantitative PCR, ABCG1 gene expression in NHEKs; assay type: cell-based, human; settings: 1 μM, FIG. 6A
Experimental: (§1) Add QIAzol® Lysis Reagent (QIAGEN Cat Number 79306) to the cells. Scrape the cells and place into a Falcon Polypropylene tube. Let stand at room temperature for 5 minutes. Add 1 ml of cells to microfuge tubes. Add 200 μl of chloroform, vortex, let stand for 5 minutes. Centrifuge at 4° C. for 15 minutes at 14,000 RPM. Add an equal volume of 70% ETOH (diluted with DEPC water). Add 600 μl to the RNeasy® column from the RNeasy® Mini Kit (QIAGEN Cat. Number 74106) centrifuge at 14,000 RPM at room temperature for 1 minute, discard flow-through. Add remainder of sample to the column, centrifuge, discard flow-through. Add 350 μl of RW1 buffer from the RNeasy® Mini Kit to the column, centrifuge at room temperature for 1 minute, discard flow-through. […] TaqMan technology was used for quantitative PCR for the evaluation of MMP, TNFα, TIMP, IL-8, ASAH1, SPTLC1, SMPD1, LASS2, TXNRD1, GPX3, GSR, CAT, ABCA1, ABCA2, ABCA12, ABCA13, ABCG1, decorin, and LXRα/β gene expression in keratinocytes and fibroblasts. […] Setup TaqMan with QuantiTect Multiplex PCR Kit (QIAGEN cat. Number 204543): 2× master mix: 25 μl; Single Tube Assay: 2.5 μl; Applied Biosystems Primers Probe set (part number 4308329)-18S forward primer: 0.25 μl, 18S reverse primer: 0.25 μl, 18S probe: 0.25 μl; water to 50 μl; 5 μl cDNA. […]

TIMP1 [1] = experiment: TaqMan quantitative PCR, TIMP1 gene expression in BJ human fibroblasts; assay type: cell-based; settings: 1 μM, FIG. 9
Experimental: (§2) Add QIAzol® Lysis Reagent (QIAGEN Cat Number 79306) to the cells. Scrape the cells and place into a Falcon Polypropylene tube. Let stand at room temperature for 5 minutes. Add 1 ml of cells to microfuge tubes. Add 200 μl of chloroform, vortex, let stand for 5 minutes. Centrifuge at 4° C. for 15 minutes at 14,000 RPM. Add an equal volume of 70% ETOH (diluted with DEPC water). Add 600 μl to the RNeasy® column from the RNeasy® Mini Kit (QIAGEN Cat. Number 74106) centrifuge at 14,000 RPM at room temperature for 1 minute, discard flow-through. Add remainder of sample to the column, centrifuge, discard flow-through. Add 350 μl of RW1 buffer from the RNeasy® Mini Kit to the column, centrifuge at room temperature for 1 minute, discard flow-through. […]
(§3) TaqMan technology was used for quantitative PCR for the evaluation of MMP, TNFα, TIMP, IL-8, ASAH1, SPTLC1, SMPD1, LASS2, TXNRD1, GPX3, GSR, CAT, ABCA1, ABCA2, ABCA12, ABCA13, ABCG1, decorin, and LXRα/β gene expression in keratinocytes and fibroblasts. […]
(§4) Setup TaqMan with QuantiTect Multiplex PCR Kit (QIAGEN cat. Number 204543): 2× master mix: 25 μl; Single Tube Assay: 2.5 μl; Applied Biosystems Primers Probe set (part number 4308329)—18S forward primer: 0.25 μl, 18S reverse primer: 0.25 μl, 18S probe: 0.25 μl; water to 50 μl; 5 μl cDNA. […]

ABCA2 = experiment: TaqMan quantitative PCR, ABCA2 gene expression in NHEKs; assay type: cell-based, human; settings: 1 μM, FIG. 6A
Experimental: as §1

MMP3 [2] = experiment: TaqMan quantitative PCR, MMP3 gene expression in BJ human fibroblasts; assay type: cell-based; settings: 5 ng/ml rhTNFα, 1 μM, FIG. 8B
Experimental: as §2, §3, §4

acid ceramidase (ASAH1) = experiment: TaqMan quantitative PCR, ASAH1 gene expression in NHEKs; assay type: cell-based, human; settings: 1 μM, FIG. 10A
Experimental: as §1

[3] = test system: serine palmitoyl transferase (SPTLC1); experiment: TaqMan quantitative PCR, SPTLC1 gene expression in NHEKs; assay type: cell-based, human; settings: 1 μM, FIG. 10A
Experimental: as §1

MMP3 [4] = experiment: TaqMan quantitative PCR, MMP3 gene expression in NHEKs; assay type: cell-based, human; settings: UV-exposed (8 J/m^2), 1 μM, FIG. 3
Experimental: as §1

decorin = experiment: TaqMan quantitative PCR, decorin gene expression in NHEKs; assay type: cell-based, human; settings: UV-exposed (8 J/m^2), 1 μM, FIG. 7
Experimental: as §1

catalase (CAT) = experiment: TaqMan quantitative PCR, CAT gene expression in NHEKs; assay type: cell-based, human; settings: 1 μM, FIG. 11
Experimental: as §1

IL-8 = experiment: TaqMan quantitative PCR, IL-8 gene expression in NHEKs; assay type: cell-based, human; settings: UV-exposed (8 J/m^2), 1 μM, FIG. 5
Experimental: as §1

MMP1 = experiment: TaqMan quantitative PCR, MMP1 gene expression in BJ human fibroblasts; assay type: cell-based; settings: 5 ng/ml rhTNFα, 1 μM, FIG. 8A
Experimental: as §2, §3, §4

[5] = test system: sphingomyelin phosphodiesterase (SMPD1); experiment: TaqMan quantitative PCR, SMPD1 gene expression in NHEKs; assay type: cell-based, human; settings: 1 μM, FIG. 10A
Experimental: as §1

ABCA1 = experiment: TaqMan quantitative PCR, ABCA1 gene expression in NHEKs; assay type: cell-based, human; settings: 1 μM, FIG. 6A
Experimental: as §1

[6] = test system: thioredoxin reductase (TXNRD1); experiment: TaqMan quantitative PCR, TXNRD1 gene expression in NHEKs; assay type: cell-based, human; settings: 1 μM, FIG. 11
Experimental: as §1

LXRβ = experiment: TaqMan quantitative PCR, LXRβ gene expression in NHEKs; assay type: cell-based, human; settings: UV-exposed (8 J/m^2), 1 μM, FIG. 1B
[7] = test system: glutathione reductase (GSR); experiment: TaqMan quantitative PCR, GSR gene expression in NHEKs; assay type: cell-based, human; settings: 1 μM, FIG. 11
Experimental: as §1

LXRα = experiment: TaqMan quantitative PCR, LXRα gene expression in NHEKs; assay type: cell-based, human; settings: 1 μM, FIG. 1A
ABCA13 = experiment: TaqMan quantitative PCR, ABCA13 gene expression in NHEKs; assay type: cell-based, human; settings: 1 μM, FIG. 6A
Experimental: as §1

TNFα = experiment: TaqMan quantitative PCR, TNFα gene expression in NHEKs; assay type: cell-based, human; settings: 1 μM, FIG. 2
Experimental: as §1

[8] = test system: ceramide synthase (LASS2); experiment: TaqMan quantitative PCR, LASS2 gene expression in NHEKs; assay type: cell-based, human; settings: 1 μM, FIG. 10A
Experimental: as §1

ABCA12 = experiment: TaqMan quantitative PCR, ABCA12 gene expression in NHEKs; assay type: cell-based, human; settings: 1 μM
Experimental: as §1

[9] = test system: glutathione peroxidase (GPX3); experiment: TaqMan quantitative PCR, GPX3 gene expression in NHEKs; assay type: cell-based, human; settings: 1 μM, FIG. 11
Experimental: as §1

TIMP1 [10] = experiment: TaqMan quantitative PCR, TIMP1 gene expression in NHEKs; assay type: cell-based, human; settings: 1 μM, FIG. 4
Experimental: as §1

O=S(=O)(c1ccccc1)N(CC(F)(F)F)c1ccc(C(O)(C(F)(F)F)C(F)(F)F)cc1 [T1317, N-(2,2,2-trifluoroethyl)-N-{4-[2,2,2-trifluoro-1-hydroxy-1-(trifluoromethyl)ethyl]phenyl}benzene sulfonamide]
ABCG1 expression (ABCG1): induction
TIMP1 expression (TIMP1 [1]; TNFα-exposed (5 ng/ml rhTNFα)): induced
TIMP1 expression (TIMP1 [1]; TNFα-unexposed): induced
ABCA2 expression (ABCA2): induction
TNFα-induced MMP-3 expression (MMP3 [2]): inhibition
ASAH1 expression (acid ceramidase (ASAH1)): induction
SPTLC1 expression [3]: induction
UV-induced MMP-3 expression (MMP3 [4]): inhibition
UVB-mediated inhibition of decorin expression (decorin): reversed
CAT expression (catalase (CAT)): induction
UV-induced expression of IL-8 (IL-8): reduced
TNFα-induced MMP1 expression (MMP1): inhibition
SMPD1 expression [5]: induction
ABCA1 expression (ABCA1): induction
TXNRD1 expression [6]: induction
UV-mediated inhibition of LXRβ expression (LXRβ): reversed
GSR expression [7]: induction
expression of LXRα (LXRα; UV-exposed (8 J/m^2)): induced
expression of LXRα (LXRα; UV-unexposed): induced
ABCA13 expression (ABCA13): induction
UV-induced expression of TNFα (TNFα; UV-exposed (8 J/m^2)): reduced
basal expression of TNFα (TNFα; UV-unexposed): reduced
LASS2 expression [8]: induction
ABCA12 expression (ABCA12; FIG. 6A): induction
UV-induced inhibition of ABCA12 expression (ABCA12; UV-exposed (8 J/m^2), FIG. 6B): reversed
GPX3 expression [9]: induction
TIMP1 expression (TIMP1 [10]; UV-exposed (8 J/m^2)): induced
TIMP1 expression (TIMP1 [10]; UV-unexposed): induced
